This is an account of results in patent US8518947B2, “(Heterocycle/tetrahydropyridine)-(piperazinyl)-1-alcanone and (heterocycle/dihydropyrrolidine)-(piperazinyl)-1-alcanone derivatives, and use thereof as p75 inhibitors” (Sanofi, priority 2009, dated 2013).

As a reminder, the melting point is the temperature, or range, at which the solid turns liquid.

SMILES strings stand for the structures. Where a name gives a salt, the structure may show the parent alone.

Molecule `O=C(CN1CC2CCC(C1)N2c1ncc(F)cn1)N1CC=C(c2cccc3ccsc23)CC1` came in with a melting point of 112 to 113 °C.

As for `C[C@@H]1CN(c2ncc(C(F)(F)F)cc2Cl)C[C@H](C)N1CC(=O)N1CC=C(c2cccc3ccoc23)CC1` [Compound 92, 1-(4-benzofuran-7-yl-3,6-dihydro-2H-pyridin-1-yl)-2-[(2S,6R)-4-(3-chloro-5-trifluoromethylpyridin-2-yl)-2,6-dimethylpiperazin-1-yl]ethanone], the melting point was 130 to 131 °C.

Consider `O=C(CN1CC2CCC(C1)N2c1ncc(F)cn1)N1CC=C(c2c[nH]c3cc(F)ccc23)CC1` (as salt: oxalate), for which the melting point was in the range of 95 to 96 °C.

Turning to `C[C@@H]1CN(c2cncnc2)C[C@H](C)N1CC(=O)N1CC=C(c2cccc3ccsc23)CC1` [Compound 55, 1-(4-benzo[b]thiophen-7-yl-3,6-dihydro-2H-pyridin-1-yl)-2-((2S,6R)-2,6-dimethyl-4-pyrimidin-5-ylpiperazin-1-yl)ethanone], the melting point lay within 195 to 196 °C.

In turn, `C[C@@H]1CN(c2ccc(-c3nnn(C)n3)cn2)C[C@H](C)N1CC(=O)N1CC=C(c2cccc3ccoc23)CC1` (as salt: oxalate) [Compound 120, 1-(4-benzofuran-7-yl-3,6-dihydro-2H-pyridin-1-yl)-2-{(2S,6R)-2,6-dimethyl-4-[5-(2-methyl-2H-tetrazol-5-yl)pyridin-2-yl]piperazin-1-yl}ethanone] came in with a melting point of 165 to 170 °C.

`O=C(CN1CC2CCC(C1)N2c1ncc(F)cn1)N1CC=C(c2cccc3ccoc23)CC1` gave a melting point of 157 to 158 °C.

`Cc1cc2cc(C3=CCN(C(=O)CN4[C@H](C)CN(c5ccc(C(F)(F)F)nc5)C[C@@H]4C)CC3)ccc2s1` [Compound 39, 2-[(2S,6R)-2,6-dimethyl-4-(6-trifluoromethylpyridin-3-yl)piperazin-1-yl]-1-[4-(2-methylbenzo[b]thiophen-5-yl)-3,6-dihydro-2H-pyridin-1-yl]ethanone] registered a melting point of 217 to 218 °C.

As for `O=C(CN1CCN(c2ccc(Cl)c(Cl)n2)CC1)N1CC=C(c2cccc3ccsc23)CC1` [Compound 112, 1-(4-benzo[b]thiophen-7-yl-3,6-dihydro-2H-pyridin-1-yl)-2-[4-(5,6-dichloropyridin-2-yl)piperazin-1-yl]ethanone], the melting point is 89 to 90 °C.

In turn, `O=C(CN1CCN(c2ccc(C(F)(F)F)cn2)C(=O)C1)N1CC=C(c2c[nH]c3ccccc23)CC1` [Compound 30, 4-{2-[4-(1H-indol-3-yl)-3,6-dihydro-2H-pyridin-1-yl]-2-oxoethyl}-1-(5-trifluoromethylpyridin-2-yl)piperazin-2-one] displayed a melting point of 230 to 233 °C.

`O=C(CN1CC2CCC(C1)N2c1cccnc1)N1CC=C(c2cccc3ccoc23)CC1`: the melting point was 121 to 123 °C.

In turn, `COC(=O)c1ccc(N2C3CCC2CN(CC(=O)N2CC=C(c4nccc5sccc45)CC2)C3)nc1` had a melting point of 170 to 171 °C.

Molecule `COC(=O)c1ccc(N2C[C@@H](C)N(CC(=O)N3CC=C(c4ccc5sccc5c4)CC3)[C@@H](C)C2)nc1` [Compound 52, Methyl 6-{(3S,5R)-4-[2-(4-benzo[b]thiophen-5-yl-3,6-dihydro-2H-pyridin-1-yl)-2-oxoethyl]-3,5-dimethylpiperazin-1-yl}nicotinate] showed a melting point of 130 to 132 °C.

`COC(=O)c1ccc(N2C3CCC2CN(CC(=O)N2CC=C(c4cccc5ccsc45)C2)C3)nc1` yielded a melting point of 172 to 173 °C.

`COC(=O)c1ccc(N2C3CCC2CN(CC(=O)N2CC=C(c4ccc5sc(C)cc5c4)CC2)C3)nc1` yielded a melting point of 179 to 180 °C.

`O=C(CN1CC2CCC(C1)N2c1ncc(F)cn1)N1CC=C(c2ccc3c(c2)OCCO3)CC1` gave a melting point of 163 to 165 °C.

The molecule `C[C@@H]1CN(c2ccc(C(F)(F)F)nc2)C[C@H](C)N1CC(=O)N1CC=C(c2cccc3ccoc23)CC1` [Compound 37, 1-(4-benzofuran-7-yl-3,6-dihydro-2H-pyridin-1-yl)-2-[(2S,6R)-2,6-dimethyl-4-(6-trifluoromethylpyridin-3-yl)piperazin-1-yl]ethanone] gave a melting point of 119 to 120 °C.

As to `O=C(CN1CCN(c2ccc(C(F)(F)F)cn2)CC1)N1CC=C(c2c[nH]c3ccccc23)CC1` [Compound 109, 1-[4-(1H-indol-3-yl)-3,6-dihydro-2H-pyridin-1-yl]-2-[4-(5-trifluoromethylpyridin-2-yl)piperazin-1-yl]ethanone], the melting point lay within 220 to 222 °C.

For `O=C(CN1CCN(c2ccc3ccccc3n2)CC1)N1CC=C(c2c[nH]c3ccccc23)CC1` [Compound 98, 1-[4-(1H-indol-3-yl)-3,6-dihydro-2H-pyridin-1-yl]-2-(4-quinolin-2-ylpiperazin-1-yl)ethanone], the melting point was 213 to 215 °C.

`O=C(CN1CCN(c2ccc(C(F)(F)F)cn2)CC1)N1CC=C(c2cccc3ccoc23)CC1` [Compound 33, 1-(4-benzofuran-7-yl-3,6-dihydro-2H-pyridin-1-yl)-2-[4-(5-trifluoromethylpyridin-2-yl)piperazin-1-yl]ethanone]: the melting point lay within 155 to 156 °C.

In turn, `O=C(CN1CCN(c2ccc(C(F)(F)F)cn2)C(=O)C1)N1CC=C(c2cccc3ccsc23)CC1` [Compound 31, 4-[2-(4-benzo[b]thiophen-7-yl-3,6-dihydro-2H-pyridin-1-yl)-2-oxoethyl]-1-(5-trifluoromethylpyridin-2-yl)piperazin-2-one] displayed a melting point of 143 to 146 °C.

In the case of `COC(=O)c1cc2cccc(C3=CCN(C(=O)CN4[C@H](C)CN(c5ccc(C(F)(F)F)cn5)C[C@@H]4C)CC3)c2s1` (as salt: HCl) [Compound 66, Methyl 7-(1-{2-[(2S,6R)-2,6-dimethyl-4-(5-trifluoromethylpyridin-2-yl)piperazin-1-yl]acetyl}-1,2,3,6-tetrahydropyridin-4-yl)benzo[b]thiophene-2-carboxylate], the melting point is 138 to 141 °C.

Regarding `C[C@@H]1CN(c2ccc3ccccc3n2)C[C@H](C)N1CC(=O)N1CC=C(c2cccc3ccsc23)CC1` (as salt: HCl) [Compound 19, 1-(4-benzo[b]thiophen-7-yl-3,6-dihydro-2H-pyridin-1-yl)-2-((2S,6R)-2,6-dimethyl-4-quinolin-2-ylpiperazin-1-yl)ethanone], the melting point was 192 to 193 °C.

Turning to `O=C(O)c1ccc(N2C3CCC2CN(CC(=O)N2CC=C(c4nccc5sccc45)CC2)C3)nc1`, the melting point fell in the range of 159 to 160 °C.

Molecule `C[C@@H]1CN(c2cncnc2)C[C@H](C)N1CC(=O)N1CC=C(c2ccc3sccc3c2)CC1` [Compound 41, 1-(4-benzo[b]thiophen-5-yl-3,6-dihydro-2H-pyridin-1-yl)-2-((2S,6R)-2,6-dimethyl-4-pyrimidin-5-ylpiperazin-1-yl)ethanone] returned a melting point of 218 to 220 °C.

On to `C[C@@H]1CN(c2ncc(F)cn2)C[C@H](C)N1CC(=O)N1CC=C(c2cccc3ccoc23)CC1` (as salt: HCl) [Compound 36, 1-(4-benzofuran-7-yl-3,6-dihydro-2H-pyridin-1-yl)-2-[(2S,6R)-4-(5-fluoropyrimidin-2-yl)-2,6-dimethylpiperazin-1-yl]ethanone], for which the melting point fell in the range of 174 to 175 °C.

In turn, `O=C(CN1CCCN(c2cccnc2)CC1)N1CC=C(c2cccc3ccoc23)CC1` (as salt: oxalate) [Compound 78, 1-(4-benzofuran-7-yl-3,6-dihydro-2H-pyridin-1-yl)-2-(4-pyridin-3-yl-[1,4]diazepan-1-yl)ethanone] showed a melting point of 100 to 101 °C.

`C[C@@H]1CN(c2ccc3ccccc3n2)C[C@H](C)N1CC(=O)N1CC=C(c2c[nH]c3ccccc23)CC1` [Compound 110, 2-((2S,6R)-2,6-dimethyl-4-quinolin-2-yl-piperazin-1-yl)-1-[4-(1H-indol-3-yl)-3,6-dihydro-2H-pyridin-1-yl]ethanone]: the melting point fell in the range of 198 to 200 °C.

For the molecule `O=C(CN1CCN(c2ccc(C(F)(F)F)cn2)CC1)N1CC=C(c2ccc3sccc3c2)CC1` [Compound 46, 1-(4-benzo[b]thiophen-5-yl-3,6-dihydro-2H-pyridin-1-yl)-2-[4-(5-trifluoromethylpyridin-2-yl)piperazin-1-yl)ethanone], the melting point was 170 to 171 °C.

The molecule `O=C(CN1CCN(c2ccc(C(F)(F)F)cn2)C(=O)C1)N1CC=C(c2nccc3sccc23)CC1` [Compound 118, 4-[2-oxo-2-(4-thieno[3,2-c]pyridin-4-yl-3,6-dihydro-2H-pyridin-1-yl)ethyl]-1-(5-trifluoromethylpyridin-2-yl)piperazin-2-one] gave a melting point of 145 to 148 °C.

In turn, `C[C@@H]1CN(c2ccc(C(F)(F)F)nc2)C[C@H](C)N1CC(=O)N1CC=C(c2ccc3sccc3c2)CC1` [Compound 47, 1-(4-benzo[b]thiophen-5-yl-3,6-dihydro-2H-pyridin-1-yl)-2-[(2S,6R)-2,6-dimethyl-4-(6-trifluoromethylpyridin-3-yl)piperazin-1-yl)ethanone] gave a melting point of 136 to 137 °C.

In the case of `O=C(CN1CCN(c2ccc(C(F)(F)F)cn2)CC1)N1CC=C(c2cccc3ccsc23)CC1` [Compound 50, 1-(4-benzo[b]thiophen-7-yl-3,6-dihydro-2H-pyridin-1-yl)-2-[4-(5-trifluoromethylpyridin-2-yl)piperazin-1-yl]ethanone], the melting point was 120 to 121 °C.

In turn, `O=C(CN1CC2CCC(C1)N2c1ncc(F)cn1)N1CC=C(c2nccc3sccc23)CC1` yielded a melting point of 167 to 168 °C.

Take `O=C(CN1CCN(c2ccc(C(F)(F)F)cn2)C(=O)C1)N1CC=C(c2ccc3occc3c2)CC1` [Compound 60, 4-[2-(4-benzofuran-5-yl-3,6-dihydro-2H-pyridin-1-yl)-2-oxoethyl]-1-(5-trifluoromethylpyridin-2-yl)piperazin-2-one]: the melting point was 154 to 155 °C.

Regarding `Cc1cc2cc(C3=CCN(C(=O)CN4CCN(c5ccc6ccccc6n5)CC4)CC3)ccc2s1` [Compound 114, 1-[4-(2-methylbenzo[b]thiophen-5-yl)-3,6-dihydro-2H-pyridin-1-yl]-2-(4-quinolin-2-ylpiperazin-1-yl)ethanone], the melting point was in the range of 189 to 190 °C.
